These results are taken from patent publication US8148391B2 (Cephalon, Inc., priority 2006, dated 2012).

Assay [1] deals with T1, c-Met (cytoplasmic domain) (Homo sapiens, UniProt P08581).
T1 construct: 10 ng/mL c-Met (cytoplasmic domain, Invitrogen Corporation #PV3143); purchased Invitrogen Corporation PV3143
Briefly: c-Met Kinase Assay (same methods as for ALK, with modifications). In kind it is biochemical. The method, boiled down: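 Europium-labeled PT66 antibody (Eu-N1) detects substrate phosphorylation on wells coated with phospholipase C-γ at 10 μg/mL. The kinase, the cytoplasmic domain of c-Met at 10 ng/mL, starts the reaction, which proceeds 15 minutes at 37° C.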

Assay [2] deals with T2, baculovirus-expressed ALK (Homo sapiens, UniProt Q9UM73).
T2 construct: host or cells: baculovirus expression system
T2 sequence (Q9UM73 19-1620): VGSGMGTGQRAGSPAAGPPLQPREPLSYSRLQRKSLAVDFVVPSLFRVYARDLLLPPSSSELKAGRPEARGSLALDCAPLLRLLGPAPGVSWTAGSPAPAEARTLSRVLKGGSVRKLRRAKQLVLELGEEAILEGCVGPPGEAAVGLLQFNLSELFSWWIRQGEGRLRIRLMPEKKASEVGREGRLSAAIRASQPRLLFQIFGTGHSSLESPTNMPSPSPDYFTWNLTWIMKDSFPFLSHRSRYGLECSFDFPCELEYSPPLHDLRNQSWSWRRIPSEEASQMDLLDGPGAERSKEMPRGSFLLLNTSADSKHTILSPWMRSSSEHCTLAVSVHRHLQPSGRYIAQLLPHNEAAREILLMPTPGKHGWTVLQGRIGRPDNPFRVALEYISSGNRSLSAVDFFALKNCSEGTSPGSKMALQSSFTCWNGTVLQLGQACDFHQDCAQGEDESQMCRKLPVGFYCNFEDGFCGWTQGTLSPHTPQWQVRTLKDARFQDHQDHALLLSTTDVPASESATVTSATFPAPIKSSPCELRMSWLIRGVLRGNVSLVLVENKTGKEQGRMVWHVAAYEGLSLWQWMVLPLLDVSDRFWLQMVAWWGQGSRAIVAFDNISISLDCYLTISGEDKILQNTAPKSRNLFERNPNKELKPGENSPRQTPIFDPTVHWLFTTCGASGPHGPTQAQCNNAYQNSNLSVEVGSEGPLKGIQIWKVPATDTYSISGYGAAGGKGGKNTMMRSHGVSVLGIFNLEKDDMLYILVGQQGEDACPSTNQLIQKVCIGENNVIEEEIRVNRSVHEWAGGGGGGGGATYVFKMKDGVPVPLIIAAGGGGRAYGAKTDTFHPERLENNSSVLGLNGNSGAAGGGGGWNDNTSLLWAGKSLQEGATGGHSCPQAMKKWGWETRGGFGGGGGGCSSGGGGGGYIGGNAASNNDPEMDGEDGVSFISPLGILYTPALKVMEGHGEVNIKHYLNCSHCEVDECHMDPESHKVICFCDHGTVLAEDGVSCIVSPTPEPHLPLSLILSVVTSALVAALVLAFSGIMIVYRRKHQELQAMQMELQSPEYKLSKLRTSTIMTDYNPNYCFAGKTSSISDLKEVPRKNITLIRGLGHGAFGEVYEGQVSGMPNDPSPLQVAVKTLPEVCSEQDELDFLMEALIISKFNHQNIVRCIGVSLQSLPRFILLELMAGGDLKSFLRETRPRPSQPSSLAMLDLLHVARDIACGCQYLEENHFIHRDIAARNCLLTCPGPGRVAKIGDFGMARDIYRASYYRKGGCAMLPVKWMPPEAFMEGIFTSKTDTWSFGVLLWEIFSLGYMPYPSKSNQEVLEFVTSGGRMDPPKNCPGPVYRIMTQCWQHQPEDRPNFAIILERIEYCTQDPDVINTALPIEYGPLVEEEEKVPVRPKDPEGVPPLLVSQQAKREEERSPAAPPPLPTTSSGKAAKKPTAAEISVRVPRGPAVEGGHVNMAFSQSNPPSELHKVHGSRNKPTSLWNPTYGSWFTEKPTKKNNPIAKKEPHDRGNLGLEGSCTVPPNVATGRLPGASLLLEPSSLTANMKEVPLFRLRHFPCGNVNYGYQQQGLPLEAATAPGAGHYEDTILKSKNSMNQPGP
Briefly: ALK Kinase Assay (ELISA-type, time-resolved fluorescence). In kind it is biochemical. A digest of the protocol:
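Plates coated with phospholipase C-γ substrate (10 μg/mL in TBS); reaction started with 30 ng/ml ALK and run 15 min at 37° C. Phosphorylated substrate detected with Eu-N1-labeled PT66 antibody. IC50 from sigmoidal variable-slope fit of percent inhibition vs log concentration.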

[3] abbreviates: c-Met kinase inhibition, 1 μM ATP (Km level), read-out: cMet Activity.
The mark [4] stands for this setting: ALK kinase inhibition, 1 μM ATP (Km level), read-out: ALK Activity.
[5] abbreviates: 1 μM ATP (Km level), read-out: cMet Activity (c-Met Kinase Inhibition, IC50).
[6] abbreviates: 1 μM ATP (Km level), read-out: ALK Activity (ALK Kinase Inhibition, IC50).
[7] abbreviates: 1 μM ATP (Km level), 10 ng/mL c-Met, read-out: cMet Activity (c-Met kinase inhibition, IC50 class).
[8] abbreviates: 1 μM ATP (Km level), 30 ng/ml ALK, 37° C., 15 minutes, read-out: ALK Activity (ALK kinase inhibition, IC50 class).
[9] abbreviates: c-Met kinase inhibition, 1 μM ATP, read-out: cMet Activity.
The mark [10] stands for this setting: ALK kinase inhibition, 1 μM ATP, read-out: ALK Activity.

The structures appear in SMILES notation. pIC50: −log10 of the molar value. Where two headings read alike, the source gives them in different places.

T1 sequence (P08581 956-1390 limits assumed): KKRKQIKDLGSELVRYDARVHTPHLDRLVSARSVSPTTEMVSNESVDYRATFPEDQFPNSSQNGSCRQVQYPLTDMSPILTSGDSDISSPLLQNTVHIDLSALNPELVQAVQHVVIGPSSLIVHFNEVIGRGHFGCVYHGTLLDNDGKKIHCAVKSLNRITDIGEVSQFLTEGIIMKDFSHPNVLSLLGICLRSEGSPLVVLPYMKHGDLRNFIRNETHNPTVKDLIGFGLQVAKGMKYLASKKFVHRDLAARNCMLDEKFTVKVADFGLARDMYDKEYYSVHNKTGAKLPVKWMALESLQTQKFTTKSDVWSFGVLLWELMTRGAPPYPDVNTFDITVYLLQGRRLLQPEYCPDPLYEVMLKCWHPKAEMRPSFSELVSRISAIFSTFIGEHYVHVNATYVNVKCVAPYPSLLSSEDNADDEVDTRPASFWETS

As to `CNC(=O)c1ccccc1Nc1nc(Nc2ccc3c(c2)C2CNCC3O2)ncc1Cl` (centres unmarked) [Example 65, 2-[5-Chloro-2-(12-oxa-10-aza-tricyclo[6.3.1.0*2,7*]dodeca-2(7),3,5-trien-4-ylamino)-pyrimidin-4-ylamino]-N-methyl-benzamide], the pIC50 in assay [1] (setting [3]) and in assay [2] (setting [4]) was 6.00 to 7.00 in each case.
`CNC(=O)c1ccccc1Nc1nc(Nc2ccc3c(c2)C2CN(C(C)C)CC3O2)ncc1Cl` (centres unmarked) [Example 62, 2-[5-Chloro-2-(10-isopropyl-12-oxa-10-aza-tricyclo[6.3.1.0*2,7*]dodeca-2,4,6-trien-4-ylamino)-pyrimidin-4-ylamino]-N-methyl-benzamide]: the pIC50 in assay [1] (setting [3]) was 6.00 to 7.00; in assay [2] (setting [4]), > 7.00.
Take `CCN1CCN(CC)c2cc(Nc3ncc(Cl)c(Nc4ccc5c(c4)N(CC)CCN(CC)C5)n3)ccc2C1` [Example 721, 5-Chloro-N*2*,N*4*-bis(1,4-diethyl-2,3,4,5-tetrahydro-1H-benzo[e][1,4]diazepin-8-yl)-pyrimidin-2,4-diamine]: the pIC50 in assay [1] (setting [5]) was < 5.00; in assay [2] (setting [6]), > 7.00.
On to `COc1cc2c(cc1Nc1ncc(Cl)c(Nc3ccccc3C(=O)OC(C)C)n1)CCN(CCCN(C)C)C(=O)C2` [Example 1111, 2-{5-Chloro-2-[3-(3-dimethylamino-propyl)-8-methoxy-2-oxo-2,3,4,5-tetrahydro-1H-benzo[d]azepin-7-ylamino]-pyrimidin-4-ylamino}-benzoic acid isopropyl ester], for which the pIC50 is < 5.00 in assay [1] (setting [7]) and > 7.00 in assay [2] (setting [8]).
Take `COCCN1CCc2cc(Nc3ncc(Cl)c(Nc4ccccc4S(=O)(=O)N(C)C)n3)c(OC)cc2CC1` [Example 1165, 2-{5-Chloro-2-[8-methoxy-3-(2-methoxy-ethyl)-2,3,4,5-tetrahydro-1H-benzo[d]azepin-7-ylamino]-pyrimidin-4-ylamino}-N,N-dimethyl-benzenesulfonamide]: the pIC50 in assay [1] (setting [7]) was 5.00 to 6.00; in assay [2] (setting [8]) it was > 7.00.
Turning to `COCC(=O)NC1CC(C)(C)c2ccc(Nc3ncc(Cl)c(Nc4c(F)cccc4C(=O)NCC#N)n3)cc2NC1=O` (centres unmarked) [Example 1637, 2-{5-Chloro-2-[3-(2-methoxy-acetylamino)-5,5-dimethyl-2-oxo-2,3,4,5-tetrahydro-1H-benzo[b]azepin-8-ylamino]-pyrimidin-4-ylamino}-N-cyanomethyl-3-fluoro-benzamide], the pIC50 in assay [1] (setting [9]) and in assay [2] (setting [10]) was > 7.00 in each case.
For `COc1cc2c(cc1Nc1ncc(Cl)c(N[C@@H]3CCCC[C@H]3NS(C)(=O)=O)n1)CCN(CCNC(C)=O)CC2` [Example 256, N-(2-{7-[5-Chloro-4-((1R,2R)-2-methanesulfonylamino-cyclohexylamino)-pyrimidin-2-ylamino]-8-methoxy-1,2,4,5-tetrahydro-benzo[d]azepin-3-yl}-ethyl)-acetamide], the pIC50 in assay [1] (setting [3]) is < 5.00; in assay [2] (setting [4]) it was > 7.00.
On to `COCCN1CCc2ccc(Nc3ncc(Cl)c(Nc4ccccc4S(=O)(=O)C(C)C)n3)cc2CC1` [Example 1685, 5-Chloro-N*2*-[3-(2-methoxy-ethyl)-2,3,4,5-tetrahydro-1H-benzo[d]azepin-7-yl]-N*4*-[2-(propane-2-sulfonyl)-phenyl]-pyrimidine-2,4-diamine], for which the pIC50 in assay [1] (setting [9]) is 6.00 to 7.00; in assay [2] (setting [10]), > 7.00.
In the case of `CNC(=O)c1ccccc1Nc1nc(Nc2ccc3c(c2)CCN(S(C)(=O)=O)CC3)ncc1Cl` [Example 42, 2-[5-Chloro-2-(3-methanesulfonyl-2,3,4,5-tetrahydro-1H-benzo[d]azepin-7-ylamino)-pyrimidin-4-ylamino]-N-methyl-benzamide], the pIC50 in assay [1] (setting [3]) and in assay [2] (setting [4]) was > 7.00 each time.
As for `COc1c(Nc2ncc(Cl)c(N[C@H]3[C@@H](C(N)=O)[C@@H]4C=C[C@H]3C4)n2)ccc2c1CCC(=O)CC2` [Example 869, (1S,2S,3R,4R)-3-[5-Chloro-2-(1-methoxy-7-oxo-6,7,8,9-tetrahydro-5H-benzocyclohepten-2-ylamino)-pyrimidin-4-ylamino]-bicyclo[2.2.1]hept-5-ene-2-carboxylic acid amide], the pIC50 in assay [1] (setting [5]) is < 5.00; in assay [2] (setting [6]) it was > 7.00.
For the compound `Cn1ccnc1-c1ccccc1Nc1nc(Nc2ccc3c(c2)CCC(=O)CC3)ncc1Cl` [Example 217, 2-{5-Chloro-4-[2-(1-methyl-1H-imidazol-2-yl)-phenylamino]-pyrimidin-2-ylamino}-5,6,8,9-tetrahydro-benzocyclohepten-7-one], the results for the pIC50 in assay [1] (setting [3]) and in assay [2] (setting [4]) were 6.00 to 7.00 and > 7.00, respectively.
With `CCN1C(=O)CN(C(C)=O)Cc2ccc(Nc3ncc(Cl)c(Nc4ccsc4C(=O)NC)n3)cc21` [Example 1853, 3-[2-(4-Acetyl-1-ethyl-2-oxo-2,3,4,5-tetrahydro-1H-benzo[e][1,4]diazepin-8-ylamino)-5-chloro-pyrimidin-4-ylamino]-thiophene-2-carboxylic acid methylamide], the pIC50 was > 7.00 in assay [1] (setting [9]) and 5.00 to 6.00 in assay [2] (setting [10]).
For `CCN1CCc2ccc(Nc3ncc(Cl)c(N[C@@H]4CCCC[C@H]4NC(C)=O)n3)cc2CC1` [Example 445, N-{(1R,2R)-2-[5-Chloro-2-(3-ethyl-2,3,4,5-tetrahydro-1H-benzo[d]azepin-7-ylamino)-pyrimidin-4-ylamino]-cyclohexyl}-acetamide], the pIC50 in assay [1] (setting [3]) and in assay [2] (setting [4]) was > 7.00 throughout.
On to `C#CCNC(=O)c1cccc(F)c1Nc1nc(Nc2ccc3c(c2)N(CCN2CCCC2)CCCC3(C)C)ncc1Cl` [Example 1609, 2-{5-Chloro-2-[5,5-dimethyl-1-(2-pyrrolidin-1-yl-ethyl)-2,3,4,5-tetrahydro-1H-benzo[b]azepin-8-ylamino]-pyrimidin-4-ylamino}-3-fluoro-N-prop-2-ynyl-benzamide], for which the figures for the pIC50 in assay [1] (setting [9]) and in assay [2] (setting [10]) were 6.00 to 7.00 and > 7.00, respectively.
As to `COc1cccnc1-c1ccccc1Nc1nc(Nc2ccc3c(c2)CCC(O)CC3)ncc1Cl` (centres unmarked) [Example 1019, 2-{5-Chloro-4-[2-(3-methoxy-pyridin-2-yl)-phenylamino]-pyrimidin-2-ylamino}-6,7,8,9-tetrahydro-5H-benzocyclohepten-7-ol], the pIC50 in assay [1] (setting [7]) and in assay [2] (setting [8]) was 6.00 to 7.00 each time.
With `CNC(=O)CN1CCc2cc(Nc3ncc(Cl)c(Nc4ccc(N5CCN(C)CC5)cc4OC)n3)c(OC)cc2CC1` [Example 783, 2-(7-{5-Chloro-4-[2-methoxy-4-(4-methyl-piperazin-1-yl)-phenylamino]-pyrimidin-2-ylamino}-8-methoxy-1,2,4,5-tetrahydro-benzo[d]azepin-3-yl)-N-methyl-acetamide], the pIC50 in assay [1] (setting [5]) is < 5.00; in assay [2] (setting [6]), > 7.00.
In the same order, the values of `COCCN1CCc2ccc(Nc3ncc(Cl)c(Nc4ccccc4-c4ncccn4)n3)cc2CC1` [Example 977, 5-Chloro-N*2*-[3-(2-methoxy-ethyl)-2,3,4,5-tetrahydro-1H-benzo[d]azepin-7-yl]-N*4*-(2-pyrimidin-2-yl-phenyl)-pyrimidine-2,4-diamine] are 6.00 to 7.00 and > 7.00.
`COCCN1CCc2ccc(Nc3ncc(Cl)c(N[C@@H]4CCC[C@H](NS(C)(=O)=O)C4)n3)cc2CC1` (relative stereo) [Example 1380, rel-N-((1S,3R)-3-{5-Chloro-2-[3-(2-methoxy-ethyl)-2,3,4,5-tetrahydro-1H-benzo[d]azepin-7-ylamino]-pyrimidin-4-ylamino}-cyclohexyl)-methanesulfonamide]: the pIC50 in assay [1] (setting [7]) is < 5.00; in assay [2] (setting [8]), 5.00 to 6.00.
As to `Cc1nnc(-c2ccccc2Nc2nc(Nc3ccc4c(c3)CCOC(=O)N4C)ncc2Cl)s1` [Example 1494, 2-{5-Chloro-4-[2-(5-methyl-[1,3,4]thiadiazol-2-yl)-phenylamino]-pyrimidin-2-ylamino}-5-methyl-8,9-dihydro-5H-7-oxa-5-aza-benzocyclohepten-6-one], the pIC50 in assay [1] (setting [9]) was > 7.00; in assay [2] (setting [10]) it was 6.00 to 7.00.
Consider `CNC(=O)c1ccccc1Nc1nc(Nc2cc3c(cc2OC)CCC(NCCOC)CC3)ncc1Cl` (centres unmarked) [Example 1086, 2-{5-Chloro-2-[3-methoxy-7-(2-methoxy-ethylamino)-6,7,8,9-tetrahydro-5H-benzocyclohepten-2-ylamino]-pyrimidin-4-ylamino}-N-methyl-benzamide], for which the pIC50 is 6.00 to 7.00 in assay [1] (setting [7]) and > 7.00 in assay [2] (setting [8]).
As to `COc1c(Nc2ncc(Cl)c(Nc3ccccc3S(=O)(=O)C(C)C)n2)ccc2c1CCCC(N1CCOCC1)C2` (centres unmarked) [Example 947, 5-Chloro-N(2)-(1-methoxy-6-morpholin-4-yl-6,7,8,9-tetrahydro-5H-benzocyclohepten-2-yl)-N(4)-[2-(propane-2-sulfonyl)-phenyl]-pyrimidine-2,4-diamine], the pIC50 is < 5.00 in assay [1] (setting [5]) and > 7.00 in assay [2] (setting [6]).
`CC(C)S(=O)(=O)c1ccccc1Nc1nc(Nc2ccc3c(c2)C(C)(C)CCC(=O)N3C)ncc1Cl` [Example 1329, 7-{5-Chloro-4-[2-(propane-2-sulfonyl)-phenylamino]-pyrimidin-2-ylamino}-1,5,5-trimethyl-1,3,4,5-tetrahydro-benzo[b]azepin-2-one]: the pIC50 in assay [1] (setting [7]) and in assay [2] (setting [8]) was > 7.00 each time.
